{
  "source": "paper PMC5601486",
  "about": "“Identification of 4-phenylquinolin-2(1H)-one as a specific allosteric inhibitor of Akt” (Scientific Reports, 2017)",
  "key": {"[1]": {"test_system": "ARK5", "test": "KINOMEscan", "settings": "50000 nM", "description": "KINOMEscan™ selectivity screen\n(§2) Briefly, Kinase-tagged T7 phage strains were grown in parallel in an E. coli host derived from the BL21 strain. E. coli were grown to log-phase and infected with T7 phage from a frozen stock and incubated with shaking at 32°C until lysis (90-150 minutes). The kinases were produced in HEK-293 cells and subsequently tagged with DNA for qPCR detection. Streptavidin-coated magnetic beads were treated with biotinylated small molecule ligands to generate affinity resins for kinase\n(§3) inhibitor or DMSO control was performed in polypropylene 384-well plates for 1 hr at room temperature. After wash with PBS buffer containing 0.05% Tween 20, the beads were incubated in elution buffer (PBS containing 0.05 % Tween 20 and 0.5 μM non-biotinylated affinity ligand) for 30 minutes at room temperature. The kinase concentration in the eluates was measured by qPCR."}, "[2]": {"test_system": "AKT3", "test": "KINOMEscan", "settings": "50000 nM", "description": "KINOMEscan™ selectivity screen\n(§4) The assay was perfor med at DiscoveRx Corporation according the methods published previously5. Briefly, Kinase-tagged T7 phage strains were grown in parallel in an E. coli host derived from the BL21 strain. E. coli were grown to log-phase and infected with T7 phage from a frozen stock and incubated with shaking at 32°C until lysis (90-150 minutes). The kinases were produced in HEK-293 cells and subsequently tagged with DNA for qPCR detection. Streptavidin-coated magnetic beads were treated with biotinylated small molecule ligands to generate affinity resins for kinase\nas §3"}, "[3]": {"test_system": "IKK-beta", "test": "KINOMEscan", "settings": "50000 nM", "description": "KINOMEscan™ selectivity screen\nas §4, §3"}, "[4]": {"test_system": "GSK3B", "test": "KINOMEscan", "settings": "50000 nM", "description": "KINOMEscan™ selectivity screen\nas §2, §3"}, "[5]": {"test_system": "CDK4-cyclinD3", "test": "KINOMEscan", "settings": "50000 nM", "description": "KINOMEscan™ selectivity screen\nas §2, §3"}, "[6]": {"test_system": "CDK4", "test": "KINOMEscan", "settings": "50000 nM", "description": "KINOMEscan™ selectivity screen\nas §2, §3"}, "[7]": {"test_system": "EPHA2", "test": "KINOMEscan", "settings": "50000 nM", "description": "KINOMEscan™ selectivity screen\nas §2, §3"}, "[8]": {"test_system": "CDK3", "test": "KINOMEscan", "settings": "50000 nM", "description": "KINOMEscan™ selectivity screen\nas §2, §3"}, "[9]": {"test_system": "p38-beta", "test": "KINOMEscan", "settings": "50000 nM", "description": "KINOMEscan™ selectivity screen\nas §4, §3"}, "[10]": {"test_system": "ULK3", "test": "KINOMEscan", "settings": "50000 nM", "description": "KINOMEscan™ selectivity screen\nas §4, §3"}, "[11]": {"test_system": "YANK2", "test": "KINOMEscan", "settings": "50000 nM", "description": "KINOMEscan™ selectivity screen\nas §2, §3"}, "[12]": {"target": "T1, Akt PH domain (Homo sapiens, UniProt P31749)", "T1 construct": "The Akt samples tested include recombinant Akt PH domain; purchased Millipore", "T1 sequence (P31749 5-108 limits assumed)": "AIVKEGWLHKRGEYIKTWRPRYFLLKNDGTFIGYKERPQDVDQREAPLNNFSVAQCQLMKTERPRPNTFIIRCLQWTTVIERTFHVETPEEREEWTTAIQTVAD", "test": "Microscale thermophoresis", "assay_type": "binding", "settings": "recombinant Akt PH domain", "procedure": "(§1) Using 0.1 M Tris-HCl buffer (pH 7.2) containing 0.05% Tween-20, a 1:1 serial dilution was prepared for G7 to yield 16 working solutions, with the highest concentration being 200 µM. Each of these G7 solutions was mixed with 1 µM of purified Akt sample prepared in the same 0.05% Tween-20 Tris-HCl buffer. […] After 15-min incubation the samples were centrifuged at 14,000 g at 4 °C before loading into premium coated capillaries (NanoTemper Tech.) for MST measurements. The MST experiments was conducted on a Monolith NT.LabelFree instrument (NanoTemper Tech.), at 20% LED power and 40% MST power. Data analyses were performed using the NanoTemper analysis software."}, "[13]": {"target": "T2, full-length Akt (Homo sapiens, UniProt P31749)", "T2 construct": "purchased Millipore", "test": "Microscale thermophoresis", "assay_type": "binding", "procedure": "as §1"}, "[14]": {"test_system": "CSNK1D", "test": "KINOMEscan", "settings": "50000 nM", "description": "KINOMEscan™ selectivity screen\nas §4, §3"}, "[15]": {"test_system": "YSK4", "test": "KINOMEscan", "settings": "50000 nM", "description": "KINOMEscan™ selectivity screen\nas §4, §3"}, "[16]": {"test_system": "ULK1", "test": "KINOMEscan", "settings": "50000 nM", "description": "KINOMEscan™ selectivity screen\nas §4, §3"}, "[17]": {"test_system": "JNK1", "test": "KINOMEscan", "settings": "50000 nM", "description": "KINOMEscan™ selectivity screen\nas §4, §3"}, "[18]": {"test_system": "FGFR1", "test": "KINOMEscan", "settings": "50000 nM", "description": "KINOMEscan™ selectivity screen\nas §4, §3"}, "[19]": {"test_system": "FLT3(D835V)", "test": "KINOMEscan", "settings": "50000 nM", "description": "KINOMEscan™ selectivity screen\nas §4, §3"}, "[20]": {"test_system": "SNARK", "test": "KINOMEscan", "settings": "50000 nM", "description": "KINOMEscan™ selectivity screen\nas §4, §3"}, "[21]": {"test_system": "CDK5", "test": "KINOMEscan", "settings": "50000 nM", "description": "KINOMEscan™ selectivity screen\nas §4, §3"}, "[22]": {"test_system": "ABL1(M351T)-phosphorylated", "test": "KINOMEscan", "settings": "50000 nM", "description": "KINOMEscan™ selectivity screen\n(§5) The assay was perfor med at DiscoveRx Corporation according the methods published previously5. […] The kinases were produced in HEK-293 cells and subsequently tagged with DNA for qPCR detection. Streptavidin-coated magnetic beads were treated with biotinylated small molecule ligands to generate affinity resins for kinase\nas §3"}, "[23]": {"test_system": "NEK2", "test": "KINOMEscan", "settings": "50000 nM", "description": "KINOMEscan™ selectivity screen\nas §4, §3"}, "[24]": {"test_system": "T3, PI3K", "T3 construct": "purchased SignalChem P27-10H-05", "test": "ADP-Glo kinase assay", "assay_type": "biochemical", "settings": "50 µM"}, "[25]": {"test_system": "FLT3(D835Y)", "test": "KINOMEscan", "settings": "50000 nM", "description": "KINOMEscan™ selectivity screen\nas §4, §3"}, "[26]": {"test_system": "SLK", "test": "KINOMEscan", "settings": "50000 nM", "description": "KINOMEscan™ selectivity screen\nas §4, §3"}, "[27]": {"test_system": "ABL1(E255K)-phosphorylated", "test": "KINOMEscan", "settings": "50000 nM", "description": "KINOMEscan™ selectivity screen\nas §4, §3"}, "[28]": {"test_system": "INSR", "test": "KINOMEscan", "settings": "50000 nM", "description": "KINOMEscan™ selectivity screen\nas §5, §3"}, "[29]": {"test_system": "p38-alpha", "test": "KINOMEscan", "settings": "50000 nM", "description": "KINOMEscan™ selectivity screen\nas §2, §3"}, "[30]": {"test_system": "AAK1", "test": "KINOMEscan", "settings": "50000 nM", "description": "KINOMEscan™ selectivity screen\nas §4, §3"}, "[31]": {"test_system": "PLK1", "test": "KINOMEscan", "settings": "50000 nM", "description": "KINOMEscan™ selectivity screen\nas §4, §3"}, "[32]": {"test_system": "PYK2", "test": "KINOMEscan", "settings": "50000 nM", "description": "KINOMEscan™ selectivity screen\nBriefly, Kinase-tagged T7 phage strains were grown in parallel in an E. coli host derived from the BL21 strain. E. coli were grown to log-phase and infected with T7 phage from a frozen stock and incubated with shaking at 32°C until lysis (90-150 minutes). The kinases were produced in HEK-293 cells and subsequently tagged with DNA for qPCR detection.\nAfter wash with PBS buffer containing 0.05% Tween 20, the beads were incubated in elution buffer (PBS containing 0.05 % Tween 20 and 0.5 μM non-biotinylated affinity ligand) for 30 minutes at room temperature. The kinase concentration in the eluates was measured by qPCR."}, "[33]": {"test_system": "FGFR2", "test": "KINOMEscan", "settings": "50000 nM", "description": "KINOMEscan™ selectivity screen\nas §4, §3"}},
  "note": "Read-outs that look alike come from different tables or passages of the source.",
  "data": [
    {"smiles": "Oc1cc(-c2ccccc2)c2ccccc2n1", "note": "[G7, 4-phenylquinolin-2(1H)-one]", "values": [
      {"measurement": "Percent Control", "setting": "[1]", "value": 59, "unit": "%"},
      {"measurement": "Percent Control", "setting": "[2]", "value": 100, "unit": "%"},
      {"measurement": "Percent Control", "setting": "[3]", "value": 83, "unit": "%"},
      {"measurement": "Percent Control", "setting": "[4]", "value": 68, "unit": "%"},
      {"measurement": "Percent Control", "setting": "[5]", "value": 71, "unit": "%"},
      {"measurement": "Percent Control", "setting": "[6]", "value": 100, "unit": "%"},
      {"measurement": "Percent Control", "setting": "[7]", "value": 100, "unit": "%"},
      {"measurement": "Percent Control", "setting": "[8]", "value": 88, "unit": "%"},
      {"measurement": "Percent Control", "setting": "[9]", "value": 97, "unit": "%"},
      {"measurement": "Percent Control", "setting": "[10]", "value": 86, "unit": "%"},
      {"measurement": "Percent Control", "setting": "[11]", "value": 100, "unit": "%"},
      {"measurement": "Kd", "setting": "[12]", "value": 8, "unit": "µM"},
      {"measurement": "Kd", "setting": "[13]; active Akt, read-out: Kd", "value": "6.3 ± 2.9", "unit": "µM"},
      {"measurement": "Kd", "setting": "[13]; full-length Akt regardless of the activation status, read-out: Kd values", "value": "4 to 6", "unit": "µM"},
      {"measurement": "Kd", "setting": "[13]; inactive Akt, read-out: Kd", "value": "3.7 ± 1", "unit": "µM"},
      {"measurement": "Percent Control", "setting": "[14]", "value": 45, "unit": "%"},
      {"measurement": "Percent Control", "setting": "[15]", "value": 55, "unit": "%"},
      {"measurement": "Percent Control", "setting": "[16]", "value": 74, "unit": "%"},
      {"measurement": "Percent Control", "setting": "[17]", "value": 75, "unit": "%"},
      {"measurement": "Percent Control", "setting": "[18]", "value": 56, "unit": "%"},
      {"measurement": "Percent Control", "setting": "[19]", "value": 7.6, "unit": "%"},
      {"measurement": "Percent Control", "setting": "[20]", "value": 45, "unit": "%"},
      {"measurement": "Percent Control", "setting": "[21]", "value": 75, "unit": "%"},
      {"measurement": "Percent Control", "setting": "[22]", "value": 55, "unit": "%"},
      {"measurement": "Percent Control", "setting": "[23]", "value": 77, "unit": "%"},
      {"measurement": "effect on PI3K activity", "setting": "[24]", "value": "no effects"},
      {"measurement": "Percent Control", "setting": "[25]", "value": 33, "unit": "%"},
      {"measurement": "Percent Control", "setting": "[26]", "value": 89, "unit": "%"},
      {"measurement": "Percent Control", "setting": "[27]", "value": 56, "unit": "%"},
      {"measurement": "Percent Control", "setting": "[28]", "value": 56, "unit": "%"},
      {"measurement": "Percent Control", "setting": "[29]", "value": 83, "unit": "%"},
      {"measurement": "Percent Control", "setting": "[30]", "value": 62, "unit": "%"},
      {"measurement": "Percent Control", "setting": "[31]", "value": 100, "unit": "%"},
      {"measurement": "Percent Control", "setting": "[32]", "value": 93, "unit": "%"},
      {"measurement": "Percent Control", "setting": "[33]", "value": 80, "unit": "%"}
    ]}
  ]
}
